This is an account of results in patent publication US7544479B2, “Method for identifying MLK inhibitors for treatment of neurological conditions” (priority 1998, dated 2009).

In one data set the test system is NMDA receptor. The settings on record: rats given glutamate, quinolinic acid or kainic acid; cited from earlier work.
Data set [1] has as its system HN33 cells. As to conditions: for induction of apoptotic cell death of HN33 cells: glutamate 250 μM or kainic acid 200 μM.
Another data set deals with JNK. The data set can be described thus: JNK activity in HN33 cell lysates (GST-c-Jun phosphorylation, Western blot). Type of data set: cell-based, rat. As to conditions: glutamate 250 μM or kainic acid 200 μM, room temperature, 15 minutes.
The subject of data set [2] is HN33 cells. In words: TUNEL assay of apoptosis induced by expression of MLK2 in HN33 cells. Type of data set: cell-based, rat. As to conditions: co-transfection with wild-type MLK2; 48 hours after transfection. The source says:
To examine whether expression of MLK2 induces neuronal cell death, HN33 cells were transfected with pRK5CMV, wild-type or kinase dead MLK2 expression vector using lipofectin (Boehringer Mannheim) according to manufacture instruction. Forty-eight hours after transfection, cells were fixed and stained with TUNEL, as described above. TUNEL negative cells (living cells) were counted.
To determine whether the role of the SEK1-JNK signal transduction pathway in neuronal cell death induced by expression of MLK2, HN33 cells were co-transfected with pEBG+pRK5CMV (control), wild-type SEK1 expression vector+wild-type MLK2 expression vector, or dominant negative mutant SEK1 (K54R) expression vector+wild-type MLK2 expression vector. Forty-eight hours after transfection, cells were fixed and stained with TUNEL. TUNEL negative cells (living cells) were counted.

Data set [3] relates to HN33 cells. The data set can be described thus: TUNEL assay of apoptosis induced by expression of APP-C-100 in HN33 cells. Type of data set: cell-based, rat. As to conditions: 48 hours after transfection. The source says:
To determine the role of activation of the SEK1-JNK signal transduction pathway in Alzheimer's diseases, a cDNA fragment encoding the full-length (Kang, J., et al., Nature, 325:733-736 (1987)) or the last C-terminal 100 amino acid of amyloid precursor protein (APP) was inserted into pcDNA1 and the resulting plasmid was designated as APP-C-100. HN33 cells (60% of confluence) was transfected with pcDNA1 (control), wild-type APP, APP-C-100 by using lipofectin (Boehringer Mannheim) according to manufacture instruction. Thirty μl of lipofectin/50 mm plate was used in all transfection experiments. Twelve to seventy-two hours after transfection, HN33 cells were fixed with 4% paraformaldehyde and permeabilized with 0.1% of Triton X-100. […] TUNEL negative cells were counted under light microscope.
To further determine the role of activation of the JNK activation in Alzheimer's diseases, HN33 cells were transfected with pcDNA1, wild-type APP expression vector, or mutant SEK1 expression vector using lipofectin (Boehringer Mannheim) according to manufacture instruction. […] TUNEL negative cells (living cells) were counted.
To determine further the role of activation of the MLK activation in Alzheimer's diseases, HN33 cells were co-transfected with pcDNA1, wild-type expression vector, with kinase dead MLK2 expression vector. […] TUNEL negative cells (living cells) were counted.

For the molecule `C[C@]12N[C@H](Cc3ccccc31)c1ccccc12` [MK-801], the “induction of c-Jun expression and neuronal apoptosis” value with NMDA receptor is recorded as “blocked”.

As to `N[C@@H](CCC(=O)O)C(=O)O` [glutamate], the “induction of apoptotic cell death of HN33 cells” value in the data set with HN33 cells [1] was “apoptotic cell death”. Further, the JNK activity result in the data set with JNK was “induced elevation of the JNK activity”.

For the molecule `C=C(C)[C@H]1CN[C@H](C(=O)O)[C@H]1CC(=O)O` [kainic acid], the “induction of apoptotic cell death of HN33 cells” value with HN33 cells [1] is on record as “apoptotic cell death”. The JNK activity entry with JNK is “induced elevation of the JNK activity”.

B1: SEK1 (K54R): dominant negative mutant of SEK1, known to specifically block JNK activation; expressed from a vector (protein, UniProt P45985 2-399, looked up, variant K54R)
Dual specificity …: AAPSPSGGGGSGGGSGSGTPGPVGSPAPGHPAVSSMQGKRKALKLNFANPPFRSTARFTLNPNPTGVQNPHIERLRTHSIESSGKLKISPEQHWDFTAEDLKDLGEIGRGAYGSVNKMVHKPSGQIMAVKRIRSTVDEKEQKQLLMDLDVVMRSSDCPYIVQFYGALFREGDCWICMELMSTSFDKFYKYVYSVLDDVIPEEILGKITLATVKALNHLKENLKIIHRDIKPSNILLDRSGNIKLCDFGISGQLVDSIAKTRDAGCRPYMAPERIDPSASRQGYDVRSDVWSLGITLYELATGRFPYPKWNSVFDQLTQVVKGDPPQLSNSEEREFSPSFINFVNLCLTKDESKRPKYKELLKHPFILMYEERAVEVACYVCKILDQMPATPSSPMYVD
modifications: expressed from vector; dominant negative
B1: the “apoptosis induced by MLK expression, effect of co-expression” value in the data set on HN33 cells [2] is recorded as “attenuated”. Moreover, the “apoptosis induced by glutamate or kainate receptor activation, effect of expression” value in the data set with HN33 cells [1] (250 μM glutamate or 200 μM kainate for six hours, 48 hours after transfection) is “blocks”. Besides, in the data set with HN33 cells [3], the “apoptosis induced by expression of APP-C-100, effect of co-expression” value is reported as “blocks”.
